Data published in patent publication US20130266629A1, “MEDICAL DEVICE HAVING A SURFACE COMPRISING ANTIMICROBIAL METAL” (DENTSPLY INTERNATIONAL INC., priority 2012, published 2013).

How the values were obtained:
MRSA = assay type: cell-based, Staphylococcus aureus; settings: 24 hours at 35±2° C.
PA01 = test: Minimum Inhibitory Concentration, fivefold dilution, no visual growth; assay type: cell-based, Pseudomonas aeruginosa; settings: PA01, 24 hours at 35±2° C.
Protocol: (§1) Streak plates and characterization by gram-staining were done. MRSA and PA01 were grown on Tryptic Soy agar (TSA) plates and S. sanguinis on horse blood plates for up to 24 hours whereas P. gingivalis was grown between 4 and 5 days on Fastidious Anaerobic agar (FAA) plates. Fivefold dilution in at least five steps of gallium nitrate (Ga(NO3)3) or bismuth chloride (BiCl3) was done. Bismuth salt had to be suspended in DMSO in order to enable salt to dissolve in culture media.
(§2) Equal amounts of bacterial solution and antimicrobial salt (in fivefold dilution) were mixed and incubated at 35±2° C.: MRSA, PA01, and S. sanguinis for 24 hours and P. gingivalis for […]. After incubation, the concentration where no visual growth could be detected was documented.

P. gingivalis = test: as above; assay type: cell-based; settings: 35±2° C.
Protocol: as §1, §2

S. sanguinis = test: as above; assay type: cell-based; settings: 24 hours at 35±2° C.
Protocol: as §1, §2

Pseudomonas aeruginosa = settings: Kaneko et al. (2007); cited from earlier work
Francisella novicida = settings: Olakanmi et al (2010); cited from earlier work

Row | Compound | Minimum Inhibitory Concentration (MIC) (MRSA) [µg/mL] | Minimum Inhibitory Concentration (MIC) (PA01) [µg/mL] | Minimum Inhibitory Concentration (MIC) (P. gingivalis) [µg/mL] | Minimum Inhibitory Concentration (MIC) (S. sanguinis) [µg/mL] | growth of Pseudomonas aeruginosa in batch cultures (Pseudomonas aeruginosa) | growth of Francisella novicida (Francisella novicida)
1 | O=[N+]([O-])[O-].O=[N+]([O-])[O-].O=[N+]([O-])[O-].[Ga+3] [Ga(NO3)3, gallium nitrate] | 1000 | 200 | 40 | 1000 | inhibits growth | inhibited the growth
2 | [Cl][Bi]([Cl])[Cl] [BiCl3, bismuth chloride] |  |  | 1000 | 40 |  | 
